Experimental data as given in ChEMBL document CHEMBL4007422 (J Med Chem, 2017).
pKi: −log10 of the molar value.

Target: 5-hydroxytryptamine receptor 6 (Homo sapiens, UniProt P50406)
Assay: Displacement of [3H]-LSD from recombinant human 5-HT6 receptor expressed in HEK293 cells after 60 mins
Assay type: cell-based

5-hydroxytryptamine receptor 6, sequence (P50406 whole entry): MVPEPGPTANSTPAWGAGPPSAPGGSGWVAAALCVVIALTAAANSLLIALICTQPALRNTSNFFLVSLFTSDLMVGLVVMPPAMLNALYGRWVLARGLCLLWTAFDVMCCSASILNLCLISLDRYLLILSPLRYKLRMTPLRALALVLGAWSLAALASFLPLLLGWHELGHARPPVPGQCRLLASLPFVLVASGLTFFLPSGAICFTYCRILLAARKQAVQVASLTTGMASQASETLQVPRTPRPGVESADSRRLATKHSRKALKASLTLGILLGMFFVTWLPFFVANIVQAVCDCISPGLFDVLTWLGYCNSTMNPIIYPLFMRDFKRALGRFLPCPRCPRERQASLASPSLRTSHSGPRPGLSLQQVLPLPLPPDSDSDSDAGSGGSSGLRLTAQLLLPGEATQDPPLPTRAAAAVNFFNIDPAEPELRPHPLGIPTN

Row | Structure (SMILES) | pKi
1 | CN1CCN(Cc2cn(S(=O)(=O)c3ccc(Br)cc3)c3cc(Cl)ccc23)CC1 | 7.22
2 | CN1CCN(Cc2cn(S(=O)(=O)c3ccc(Br)cc3)c3ccc(OCC(F)(F)F)cc23)CC1 | 7.02
3 | CC(C)c1ccc(S(=O)(=O)n2cc(CN3CCN(C)CC3)c3cc(O)ccc32)cc1 | 7.30
4 | COc1ccc2c(c1)c(CN1CCNCC1)cn2S(=O)(=O)c1ccc(C(C)C)cc1 | 8.24
5 | CN1CCN(Cc2cn(S(=O)(=O)c3ccc(C#N)cc3)c3ccccc23)CC1 | 7.04
6 | CN1CCN(Cc2cn(S(=O)(=O)c3ccccc3Br)c3ccc(F)cc23)CC1 | 7.92
7 | CN1CCN(Cc2cn(S(=O)(=O)c3ccc(Br)cc3)c3ccc(F)cc23)CC1 | 8.04
8 | CN1CCN(Cc2cn(S(=O)(=O)c3ccccc3Br)c3ccc(O)cc23)CC1 | 7.73
9 | COc1ccc2c(CN3CCN(C)CC3)cn(S(=O)(=O)c3ccc(F)cc3)c2c1 | 6.62
10 | CN1CCN(Cc2c[nH]c3ccccc23)CC1 | 6.32
11 | CN1CCN(Cc2cn(S(=O)(=O)c3ccc(F)cc3)c3cccc(Cl)c23)CC1 | 7.51
12 | CN1CCN(Cc2cn(S(=O)(=O)c3ccc(F)cc3)c3ccc(Br)cc23)CC1 | 7.77
13 | O=S(=O)(c1ccccc1Br)n1cc(CN2CCN(Cc3ccccc3)CC2)c2ccccc21 | 6.88
14 | CC(C)c1ccc(S(=O)(=O)n2cc(CN3CCN(C)CC3)c3ccccc32)cc1 | 8.22
15 | CCN1CCN(Cc2cn(S(=O)(=O)c3ccccc3Br)c3ccc(OC)cc23)CC1 | 8.17
16 | Cc1ccc(C)c(S(=O)(=O)n2cc(CN3CCN(C)CC3)c3ccccc32)c1 | 7.19
17 | CCN1CCN(Cc2cn(S(=O)(=O)c3ccc(C(C)C)cc3)c3ccc(OC)cc23)CC1 | 8.77
18 | COc1ccc2c(c1)c(CN1CCN(C)CC1)c(Cl)n2S(=O)(=O)c1ccc(C(C)C)cc1 | 7.53
19 | CN1CCN(Cc2cn(S(=O)(=O)c3ccccc3Br)c3ccc([N+](=O)[O-])cc23)CC1 | 6.70
20 | CN1CCN(Cc2cn(S(=O)(=O)c3ccc(F)cc3)c3ccc(O)cc23)CC1 | 7.46
21 | COc1ccc2c(c1)c(CN1CCNCC1)cn2S(=O)(=O)c1ccc(F)cc1 | 8.16

Row | Structure (SMILES) | pKi
22 | O=S(=O)(c1ccccc1Br)n1cc(CN2CCNCC2)c2ccccc21 | 8.35
23 | CN1CCN(Cc2cn(S(=O)(=O)c3ccc(F)cc3Cl)c3ccccc23)CC1 | 7.54
24 | CN1CCN(Cc2cn(S(=O)(=O)c3ccccc3Br)c3ccccc23)CC1 | 7.99
25 | CN1CCN(Cc2cn(S(=O)(=O)c3cccc(Cl)c3)c3ccccc23)CC1 | 7.79
26 | CN1CCN(Cc2cn(S(=O)(=O)c3ccc(Cl)cc3Cl)c3ccccc23)CC1 | 7.55
27 | CC(C)Oc1ccc2c(c1)c(CN1CCN(C)CC1)cn2S(=O)(=O)c1ccccc1Br | 7.44
28 | CN1CCN(Cc2cn(S(=O)(=O)c3cccc4ccccc34)c3ccccc23)CC1 | 7.94
29 | CN1CCN(Cc2cn(S(=O)(=O)c3ccccc3Br)c3cccc(Cl)c23)CC1 | 7.63
30 | CCN1CCN(Cc2cn(S(=O)(=O)c3ccc(F)cc3)c3ccc(OC)cc23)CC1 | 7.70
31 | O=S(=O)(c1ccccc1Br)n1cc(CN2CCNCC2)c2ncccc21 | 7.02
32 | CN1CCN(Cc2cn(S(=O)(=O)c3ccc(F)cc3)c3ccc(Cl)cc23)CC1 | 7.76
33 | COc1cccc2c1c(CN1CCN(C)CC1)cn2S(=O)(=O)c1ccc(F)cc1 | 7.74
34 | Cc1c(CN2CCN(C)CC2)c2ccccc2n1S(=O)(=O)c1ccc(F)cc1 | 7.25
35 | O=S(=O)(c1ccccc1)n1cc(CN2CCNCC2)c2ccccc21 | 8.12
36 | COc1ccc2c(c1)c(CN1CCN(C)CC1)nn2S(=O)(=O)c1ccccc1Br | 6.46
37 | CN1CCN(Cc2cn(S(=O)(=O)c3ccccc3)c3ncccc23)CC1 | 6.56
38 | CSc1ccc2c(c1)c(CN1CCN(C)CC1)cn2S(=O)(=O)c1ccccc1Br | 6.71
39 | CC(C)c1ccc(S(=O)(=O)n2cc(CN3CCN(C)CC3)c3c(Cl)cccc32)cc1 | 8.04
40 | COc1ccc(OC)c(S(=O)(=O)n2cc(CN3CCN(C)CC3)c3ccccc32)c1 | 7.04
41 | CN1CCN(Cc2cn(Cc3ccccc3Br)c3ccccc23)CC1 | 6.51
42 | COc1cccc2c1c(CN1CCN(C)CC1)cn2S(=O)(=O)c1ccccc1Br | 7.84

Row | Structure (SMILES) | pKi
43 | CN1CCN(Cc2cn(S(=O)(=O)c3ccccc3F)c3ccccc23)CC1 | 8.11
44 | CN1CCN(Cc2cn(S(=O)(=O)c3ccc(OC(F)(F)F)cc3)c3ccccc23)CC1 | 6.82
45 | CC(C)c1ccc(S(=O)(=O)n2cc(CN3CCN(C)CC3)c3cc(Br)ccc32)cc1 | 7.56
46 | CN1CCN(Cc2cn(S(=O)(=O)c3ccc(Br)cc3)c3ccccc23)CC1 | 8.67
47 | CN1CCN(CCc2cn(S(=O)(=O)c3ccccc3Br)c3ccc(Br)cc23)CC1 | 6.40
48 | CN1CCN(Cc2cn(C(=O)c3ccccc3Br)c3ccc(F)cc23)CC1 | 6.49
49 | CN1CCN(Cc2cn(S(=O)(=O)c3ccc(F)c(F)c3)c3ccccc23)CC1 | 6.92
50 | COc1ccc2c(CN3CCN(C)CC3)cn(S(=O)(=O)c3ccc(C(C)C)cc3)c2c1 | 7.44
51 | COc1ccc2c(c1)c(CN1CCN(CCF)CC1)cn2S(=O)(=O)c1ccccc1Br | 6.46
52 | CN1CCN(Cc2cn(S(=O)(=O)c3cccc(F)c3)c3ccccc23)CC1 | 7.24
53 | O=C(c1ccccc1)N1CCN(Cc2cn(S(=O)(=O)c3ccccc3Br)c3ccccc23)CC1 | 6.44
54 | CN1CCN(CCc2cn(S(=O)(=O)c3cccc(Br)c3)c3ccc(Br)cc23)CC1 | 6.54
55 | CN1CCN(Cc2cn(S(=O)(=O)c3c(Cl)cccc3Cl)c3ccccc23)CC1 | 7.00
56 | Cc1ccc(S(=O)(=O)n2cc(CN3CCN(C)CC3)c3ccccc32)cc1 | 8.02
57 | CN1CCN(Cc2cn(S(=O)(=O)c3ccccc3)c3cc(Cl)ccc23)CC1 | 7.45
58 | CN1CCN(Cc2cn(S(=O)(=O)c3ccc(F)cc3F)c3ccccc23)CC1 | 7.52
59 | CC(=O)N1CCN(Cc2cn(S(=O)(=O)c3ccccc3Br)c3ccccc23)CC1 | 6.41
60 | CN1CCN(Cc2cn(S(=O)(=O)c3cccc(Br)c3)c3ccccc23)CC1 | 7.72
61 | CN1CCN(Cc2cn(S(=O)(=O)c3c(F)cccc3F)c3ccccc23)CC1 | 7.19
